Test results as given in ChEMBL document CHEMBL1201862, “PubChem BioAssay data set” (2004).
The source made the active and inactive calls.

Columns and labels:
[1] = target: Sphingosine 1-phosphate receptor 2 (Homo sapiens, UniProt O95136); assay: Dose Response Cell Based Assay for Antagonists of the S1P2 Receptor. [Related pubchem assays: 856, 736 ]; format: functional
[2] = target: T1, Protein RecA (Mycobacterium tuberculosis, UniProt P9WHJ3); assay: Fluorescence Cell-Free Homogeneous Dose Retest to Identify Inhibitors of RecA-Intein Splicing Activity. [Related pubchem assays (depositor defined):AID2097, AID2223, AID489010, AID492950]; format: functional
T1 sequence (P9WHJ3 whole entry): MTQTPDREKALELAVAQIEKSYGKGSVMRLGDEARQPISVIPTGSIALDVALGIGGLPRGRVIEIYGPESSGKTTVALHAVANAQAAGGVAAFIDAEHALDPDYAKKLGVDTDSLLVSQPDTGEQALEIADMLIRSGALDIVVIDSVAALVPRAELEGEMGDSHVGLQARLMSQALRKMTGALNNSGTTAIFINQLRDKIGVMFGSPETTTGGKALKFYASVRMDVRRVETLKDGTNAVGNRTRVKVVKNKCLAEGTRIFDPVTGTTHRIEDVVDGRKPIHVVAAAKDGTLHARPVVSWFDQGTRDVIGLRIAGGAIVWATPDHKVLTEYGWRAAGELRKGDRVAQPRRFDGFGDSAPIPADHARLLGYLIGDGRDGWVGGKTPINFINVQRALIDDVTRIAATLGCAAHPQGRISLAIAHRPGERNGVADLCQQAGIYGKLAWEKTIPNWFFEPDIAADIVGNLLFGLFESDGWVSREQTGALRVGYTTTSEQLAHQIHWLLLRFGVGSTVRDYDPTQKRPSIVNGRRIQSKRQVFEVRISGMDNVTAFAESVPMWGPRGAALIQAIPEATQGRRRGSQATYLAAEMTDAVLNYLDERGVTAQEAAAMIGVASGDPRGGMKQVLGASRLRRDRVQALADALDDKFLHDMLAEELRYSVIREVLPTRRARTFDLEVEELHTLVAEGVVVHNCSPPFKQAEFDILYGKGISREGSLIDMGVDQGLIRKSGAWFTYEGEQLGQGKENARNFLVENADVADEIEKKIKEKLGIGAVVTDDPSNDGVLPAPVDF

[3] = target: T2, Sphingosine 1-phosphate receptor 4 (Homo sapiens, UniProt O95977); assay: Fluorescence dose response cell-based high throughput screening assay for antagonists of the Sphingosine 1-Phosphate Receptor 4 (S1P4). [Related pubchem assays: 1524 (Confirmation in triplicates.), 1510 (Primary screen.)]; format: functional
T2 sequence (O95977 whole entry): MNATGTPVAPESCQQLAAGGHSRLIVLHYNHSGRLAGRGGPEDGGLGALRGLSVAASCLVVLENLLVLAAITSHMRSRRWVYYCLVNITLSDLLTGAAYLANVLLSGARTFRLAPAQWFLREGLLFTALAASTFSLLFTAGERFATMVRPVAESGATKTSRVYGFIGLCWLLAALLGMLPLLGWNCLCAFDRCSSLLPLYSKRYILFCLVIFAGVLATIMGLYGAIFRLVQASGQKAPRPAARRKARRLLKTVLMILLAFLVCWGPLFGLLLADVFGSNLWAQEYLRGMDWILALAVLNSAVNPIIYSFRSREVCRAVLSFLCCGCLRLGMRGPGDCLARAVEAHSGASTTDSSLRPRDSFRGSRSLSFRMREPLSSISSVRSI

[4] = target: Luciferin 4-monooxygenase (Photinus pyralis, UniProt P08659); assay: Counter Screen for Luciferase-based Assay Positives. [Related pubchem assays: 620, 618, 411 ]
Sequence of Luciferin 4-monooxygenase (P08659 whole entry): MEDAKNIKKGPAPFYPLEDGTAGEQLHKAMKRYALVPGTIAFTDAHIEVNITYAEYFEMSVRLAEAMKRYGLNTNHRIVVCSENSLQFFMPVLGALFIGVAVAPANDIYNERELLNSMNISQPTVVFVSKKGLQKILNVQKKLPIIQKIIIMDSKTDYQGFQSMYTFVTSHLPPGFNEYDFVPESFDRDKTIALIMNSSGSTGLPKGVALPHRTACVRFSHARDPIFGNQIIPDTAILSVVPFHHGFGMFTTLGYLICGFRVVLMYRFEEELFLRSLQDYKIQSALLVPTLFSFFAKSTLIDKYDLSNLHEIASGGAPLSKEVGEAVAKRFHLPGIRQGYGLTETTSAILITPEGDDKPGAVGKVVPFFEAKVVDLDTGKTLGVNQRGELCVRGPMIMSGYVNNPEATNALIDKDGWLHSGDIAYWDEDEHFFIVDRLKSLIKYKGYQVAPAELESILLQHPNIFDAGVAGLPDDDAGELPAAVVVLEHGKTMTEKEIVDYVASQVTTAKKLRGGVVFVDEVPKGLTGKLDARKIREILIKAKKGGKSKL

[5] = system: HT-1080; assay: cytotoxicity in HT1080 fibrosarcoma cells, cell-based, fluorescence readout (AID 620); format: functional; conditions: Homo sapiens
[6] = target: T2, Sphingosine 1-phosphate receptor 4; assay: Late stage fluorescence dose response cell-based screening assay for antagonists of the Sphingosine 1-Phosphate Receptor 4 (S1P4). [Related pubchem assays: 1524 (Confirmation screen (S1P4 antagonists).), 1510 (Primary screen (S1P4 antagonists).), 1853 (Summary AID (S1P4 antagonists).), 1692 (Dose response screen (S1P4 antagonists).)]; format: functional
[7] = target: T3, Replicative DNA helicase DnaB (Mycobacterium tuberculosis, UniProt P9WMR3); assay: DnaB intein splicing inhibitors, dose response, biochemical, cell-free fluorescence (AID 449749); format: functional
T3 sequence (P9WMR3 whole entry): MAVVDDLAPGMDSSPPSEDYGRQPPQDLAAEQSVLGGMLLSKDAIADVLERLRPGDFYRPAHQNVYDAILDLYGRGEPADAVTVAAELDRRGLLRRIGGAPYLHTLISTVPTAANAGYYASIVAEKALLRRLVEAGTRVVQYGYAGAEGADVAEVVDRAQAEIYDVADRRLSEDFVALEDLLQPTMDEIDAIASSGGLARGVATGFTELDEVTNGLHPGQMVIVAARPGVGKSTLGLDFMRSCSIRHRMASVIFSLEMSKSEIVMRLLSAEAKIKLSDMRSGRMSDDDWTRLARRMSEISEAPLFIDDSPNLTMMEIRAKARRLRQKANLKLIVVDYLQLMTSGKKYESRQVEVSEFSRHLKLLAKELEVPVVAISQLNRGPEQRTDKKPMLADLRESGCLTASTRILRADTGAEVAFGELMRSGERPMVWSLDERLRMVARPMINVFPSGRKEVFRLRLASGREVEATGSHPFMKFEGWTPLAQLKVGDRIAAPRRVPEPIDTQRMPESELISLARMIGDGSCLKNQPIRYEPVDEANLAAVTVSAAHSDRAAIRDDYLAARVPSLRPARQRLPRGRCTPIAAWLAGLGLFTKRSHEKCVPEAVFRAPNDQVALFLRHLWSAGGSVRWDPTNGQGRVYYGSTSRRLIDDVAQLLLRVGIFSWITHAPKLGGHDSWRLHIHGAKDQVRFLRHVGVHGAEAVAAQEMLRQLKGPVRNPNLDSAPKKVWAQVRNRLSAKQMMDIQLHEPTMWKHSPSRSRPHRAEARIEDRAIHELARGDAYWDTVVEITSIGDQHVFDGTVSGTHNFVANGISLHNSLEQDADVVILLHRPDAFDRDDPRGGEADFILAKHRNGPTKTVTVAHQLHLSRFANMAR

[8] = target: Sphingosine 1-phosphate receptor 1 (Homo sapiens, UniProt P21453); format: functional;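 further: Tango beta-arrestin reporter U2OS cells stimulated with S1P near its EC80; inhibitor potency meaning antagonism of receptor activation by the natural agonist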
Sequence of Sphingosine 1-phosphate receptor 1 (P21453 whole entry): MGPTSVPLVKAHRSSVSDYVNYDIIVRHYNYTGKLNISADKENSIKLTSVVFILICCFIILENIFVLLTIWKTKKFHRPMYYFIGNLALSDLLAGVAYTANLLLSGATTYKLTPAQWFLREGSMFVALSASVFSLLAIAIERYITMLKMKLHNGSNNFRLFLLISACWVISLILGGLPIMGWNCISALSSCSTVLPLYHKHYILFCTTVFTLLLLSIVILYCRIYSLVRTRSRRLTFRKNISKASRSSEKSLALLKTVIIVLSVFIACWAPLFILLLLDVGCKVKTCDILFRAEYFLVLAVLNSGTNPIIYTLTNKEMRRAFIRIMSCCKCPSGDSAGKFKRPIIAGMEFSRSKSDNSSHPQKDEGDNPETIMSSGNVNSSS

[9] = target: Diphosphomevalonate decarboxylase (Streptococcus pneumoniae serotype 2 (strain D39 / NCTC 7466), UniProt Q9FD53); assay: S. pneumoniae DPM-DC inhibition retest, confirmation, biochemical, cuvette format, coupled NADH fluorescence (AID 1028); format: functional
Sequence of Diphosphomevalonate decarboxylase (Q9FD53 whole entry): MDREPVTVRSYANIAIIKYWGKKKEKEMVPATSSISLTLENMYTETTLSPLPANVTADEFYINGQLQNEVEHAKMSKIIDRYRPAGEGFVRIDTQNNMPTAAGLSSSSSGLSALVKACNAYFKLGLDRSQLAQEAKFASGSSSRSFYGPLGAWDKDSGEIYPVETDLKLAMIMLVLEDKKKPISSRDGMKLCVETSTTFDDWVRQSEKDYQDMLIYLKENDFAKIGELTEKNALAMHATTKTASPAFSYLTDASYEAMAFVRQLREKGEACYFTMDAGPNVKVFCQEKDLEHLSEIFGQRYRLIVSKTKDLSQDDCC

[10] = system: Vero; assay: West Nile virus antiviral activity, cell-based, CPE readout (AID 1621); format: functional; conditions: Chlorocebus sabaeus
[11] = target: T4, Eukaryotic translation initiation factor 2-alpha kinase 3 (Homo sapiens, UniProt Q9NZJ5); assay: Counterscreen assay for PERK inhibitors: Dose response cell-based high throughput screening assay to measure inhibition of PERK at 6 hours. [Related pubchem assays: 1522, 1416 ]; format: functional
T4 sequence (Q9NZJ5 whole entry): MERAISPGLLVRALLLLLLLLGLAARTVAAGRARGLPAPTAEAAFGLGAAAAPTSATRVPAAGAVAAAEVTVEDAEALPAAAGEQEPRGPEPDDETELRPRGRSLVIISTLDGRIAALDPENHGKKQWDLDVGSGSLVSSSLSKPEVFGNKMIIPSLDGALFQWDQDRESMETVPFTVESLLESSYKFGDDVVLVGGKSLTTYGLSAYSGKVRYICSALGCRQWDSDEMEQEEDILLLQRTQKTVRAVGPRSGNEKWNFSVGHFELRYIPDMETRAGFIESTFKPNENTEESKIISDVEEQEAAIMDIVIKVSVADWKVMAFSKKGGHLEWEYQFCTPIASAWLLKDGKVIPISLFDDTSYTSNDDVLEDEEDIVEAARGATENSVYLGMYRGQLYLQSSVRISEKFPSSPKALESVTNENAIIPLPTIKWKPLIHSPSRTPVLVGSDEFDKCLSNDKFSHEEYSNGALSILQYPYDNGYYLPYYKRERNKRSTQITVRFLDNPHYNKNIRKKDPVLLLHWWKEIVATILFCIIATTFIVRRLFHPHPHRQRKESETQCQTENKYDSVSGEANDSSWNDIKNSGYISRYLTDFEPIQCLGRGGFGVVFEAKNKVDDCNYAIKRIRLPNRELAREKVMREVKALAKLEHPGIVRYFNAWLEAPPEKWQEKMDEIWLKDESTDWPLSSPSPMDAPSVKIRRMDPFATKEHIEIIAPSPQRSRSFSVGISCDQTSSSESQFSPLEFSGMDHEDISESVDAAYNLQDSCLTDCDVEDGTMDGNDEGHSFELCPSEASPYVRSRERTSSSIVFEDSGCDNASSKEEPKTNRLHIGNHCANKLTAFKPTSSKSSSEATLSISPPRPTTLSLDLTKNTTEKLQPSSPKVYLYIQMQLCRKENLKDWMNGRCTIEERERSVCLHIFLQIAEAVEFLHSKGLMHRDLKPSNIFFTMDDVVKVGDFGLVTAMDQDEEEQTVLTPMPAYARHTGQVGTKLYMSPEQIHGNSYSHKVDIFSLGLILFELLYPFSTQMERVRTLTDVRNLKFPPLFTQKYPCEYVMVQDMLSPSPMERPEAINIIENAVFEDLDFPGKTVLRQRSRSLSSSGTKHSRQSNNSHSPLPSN

[12] = target: T4, Eukaryotic translation initiation factor 2-alpha kinase 3; assay: Dose response cell-based high-throughput screening assay to measure PERK inhibition. [Related pubchem assays: 1416 ]; format: functional
[13] = THP-1 cell cytotoxicity, dose response, cytotoxicity control for non-replicating M. tuberculosis project (AID 489025); format: functional
[14] = M. tuberculosis growth inhibition, HTS (AID 449762); format: functional
[15] = target: Albumin (Bos taurus, UniProt P02769); assay: Counterscreen for inhibitors of T-cell receptor (TCR)-CD3 interaction: Fluorescence-based biochemical high throughput dose response assay to identify inhibitors of T-cell receptor (TCR)-CD3 interaction using a TAMRA-labeled BSA probe.; format: functional
Sequence of Albumin (P02769 whole entry): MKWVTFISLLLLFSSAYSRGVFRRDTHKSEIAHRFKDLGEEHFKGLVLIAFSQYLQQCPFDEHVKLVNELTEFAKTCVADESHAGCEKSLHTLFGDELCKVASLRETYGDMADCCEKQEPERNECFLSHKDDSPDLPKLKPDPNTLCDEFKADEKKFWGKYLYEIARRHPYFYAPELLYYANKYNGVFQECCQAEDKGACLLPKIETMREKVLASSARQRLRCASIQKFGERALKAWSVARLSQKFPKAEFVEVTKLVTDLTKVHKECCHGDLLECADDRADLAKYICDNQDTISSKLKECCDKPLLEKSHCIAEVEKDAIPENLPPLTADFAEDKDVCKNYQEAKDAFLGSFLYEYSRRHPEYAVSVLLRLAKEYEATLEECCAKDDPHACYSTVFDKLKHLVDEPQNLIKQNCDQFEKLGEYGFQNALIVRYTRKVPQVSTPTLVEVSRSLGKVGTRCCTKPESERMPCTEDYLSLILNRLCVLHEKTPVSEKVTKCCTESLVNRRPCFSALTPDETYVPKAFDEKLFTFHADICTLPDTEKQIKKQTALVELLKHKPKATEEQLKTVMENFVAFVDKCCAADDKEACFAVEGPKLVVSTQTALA

[16] = target: Bcl-2-like protein 1 (Homo sapiens, UniProt Q07817); assay: BCL-XL inhibitors, dose response, selectivity assay for MCL1 inhibitor project, biochemical, fluorescence polarization, 1536-well (AID 2218)
Sequence of Bcl-2-like protein 1 (Q07817 whole entry): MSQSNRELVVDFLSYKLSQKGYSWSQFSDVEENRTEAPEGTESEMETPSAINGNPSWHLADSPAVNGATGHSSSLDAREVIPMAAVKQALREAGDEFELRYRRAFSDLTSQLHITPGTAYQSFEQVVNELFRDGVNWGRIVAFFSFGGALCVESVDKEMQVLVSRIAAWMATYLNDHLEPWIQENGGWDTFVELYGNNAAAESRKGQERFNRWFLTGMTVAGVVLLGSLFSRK

[17] = target: DNA (cytosine-5)-methyltransferase 1 (Homo sapiens, UniProt P26358); assay: DNMT1 methyltransferase inhibitors, confirmation, biochemical, fluorescent molecular beacon (AID 602386); format: functional
Sequence of DNA (cytosine-5)-methyltransferase 1 (P26358 whole entry): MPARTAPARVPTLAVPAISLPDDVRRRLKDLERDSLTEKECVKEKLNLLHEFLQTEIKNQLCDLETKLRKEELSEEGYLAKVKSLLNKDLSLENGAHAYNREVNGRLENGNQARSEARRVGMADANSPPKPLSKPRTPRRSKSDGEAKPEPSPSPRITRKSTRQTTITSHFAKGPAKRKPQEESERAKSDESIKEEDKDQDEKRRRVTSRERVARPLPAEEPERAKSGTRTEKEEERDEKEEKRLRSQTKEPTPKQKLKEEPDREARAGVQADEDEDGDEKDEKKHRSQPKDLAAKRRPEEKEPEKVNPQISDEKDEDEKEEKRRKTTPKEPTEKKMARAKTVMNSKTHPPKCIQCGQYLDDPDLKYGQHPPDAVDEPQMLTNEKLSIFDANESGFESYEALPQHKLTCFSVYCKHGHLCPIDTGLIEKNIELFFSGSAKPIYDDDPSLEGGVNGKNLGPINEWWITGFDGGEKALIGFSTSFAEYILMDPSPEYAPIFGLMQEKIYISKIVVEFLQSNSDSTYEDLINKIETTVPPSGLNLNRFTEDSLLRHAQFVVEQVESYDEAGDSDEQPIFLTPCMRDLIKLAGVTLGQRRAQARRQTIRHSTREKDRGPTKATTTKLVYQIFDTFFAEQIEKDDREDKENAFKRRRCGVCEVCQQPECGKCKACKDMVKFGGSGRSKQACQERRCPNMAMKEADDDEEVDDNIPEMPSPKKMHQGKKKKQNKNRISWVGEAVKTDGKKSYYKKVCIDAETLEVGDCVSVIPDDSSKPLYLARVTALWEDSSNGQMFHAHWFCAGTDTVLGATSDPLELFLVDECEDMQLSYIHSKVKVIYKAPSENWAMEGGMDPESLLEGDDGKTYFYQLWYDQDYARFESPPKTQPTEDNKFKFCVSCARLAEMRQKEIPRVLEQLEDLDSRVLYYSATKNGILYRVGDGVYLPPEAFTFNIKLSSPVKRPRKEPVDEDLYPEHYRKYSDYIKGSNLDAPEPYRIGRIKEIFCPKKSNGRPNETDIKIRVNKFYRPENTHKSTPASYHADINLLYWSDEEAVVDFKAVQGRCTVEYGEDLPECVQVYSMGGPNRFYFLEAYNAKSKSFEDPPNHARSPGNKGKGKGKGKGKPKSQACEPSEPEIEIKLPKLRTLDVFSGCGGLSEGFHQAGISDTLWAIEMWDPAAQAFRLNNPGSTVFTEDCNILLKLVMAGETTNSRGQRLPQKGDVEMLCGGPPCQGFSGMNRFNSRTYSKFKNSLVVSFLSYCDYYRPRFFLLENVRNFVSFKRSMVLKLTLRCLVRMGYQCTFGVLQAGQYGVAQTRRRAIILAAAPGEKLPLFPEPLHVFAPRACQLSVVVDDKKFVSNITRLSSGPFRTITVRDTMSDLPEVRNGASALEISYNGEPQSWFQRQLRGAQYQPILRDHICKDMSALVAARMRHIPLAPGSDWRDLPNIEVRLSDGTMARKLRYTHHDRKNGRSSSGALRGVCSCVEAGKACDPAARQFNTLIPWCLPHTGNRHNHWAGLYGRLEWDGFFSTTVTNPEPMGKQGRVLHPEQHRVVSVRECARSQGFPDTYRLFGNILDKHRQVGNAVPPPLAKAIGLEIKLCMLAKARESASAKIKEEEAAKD

[18] = target: Induced myeloid leukemia cell differentiation protein Mcl-1 (Homo sapiens, UniProt Q07820); assay: MCL1-BIM BH3 interaction inhibitors, dose response, biochemical, fluorescence polarization, BIM-BH3 peptide, 1536-well (AID 2217)
Sequence of Induced myeloid leukemia cell differentiation protein Mcl-1 (Q07820 whole entry): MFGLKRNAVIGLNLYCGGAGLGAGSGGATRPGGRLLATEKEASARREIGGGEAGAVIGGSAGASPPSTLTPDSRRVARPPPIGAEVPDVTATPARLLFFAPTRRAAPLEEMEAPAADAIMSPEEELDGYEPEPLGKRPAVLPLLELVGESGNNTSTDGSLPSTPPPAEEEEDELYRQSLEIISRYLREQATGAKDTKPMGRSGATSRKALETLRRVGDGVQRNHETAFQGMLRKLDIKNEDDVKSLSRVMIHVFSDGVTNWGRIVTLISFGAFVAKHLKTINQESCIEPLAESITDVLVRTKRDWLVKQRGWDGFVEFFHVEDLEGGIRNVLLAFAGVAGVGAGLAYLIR

[19] = target: Genome polyprotein (Hepatitis C virus, UniProt Q2Q167); assay: HCV core protein dimerization inhibitors, dose response, biochemical, TR-FRET (AID 2159); parameters: species or system Hepacivirus hominis;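 further: blocks dimerization of HCV core protein measured by TR-FRET between tagged core106 pairs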
Sequence of Genome polyprotein (Q2Q167 whole entry): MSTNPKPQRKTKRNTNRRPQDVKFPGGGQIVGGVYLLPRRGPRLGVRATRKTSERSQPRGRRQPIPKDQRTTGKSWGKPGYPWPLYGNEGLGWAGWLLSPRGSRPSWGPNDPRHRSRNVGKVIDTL

[20] = target: T5, Small ubiquitin-related modifier 1 (Homo sapiens, UniProt P63165); assay: inhibitors of SUMO1 partner interactions, dose response, biochemical, FRET (AID 624383); format: functional; conditions: read-out: IC50_Mean
T5 sequence (P63165 whole entry): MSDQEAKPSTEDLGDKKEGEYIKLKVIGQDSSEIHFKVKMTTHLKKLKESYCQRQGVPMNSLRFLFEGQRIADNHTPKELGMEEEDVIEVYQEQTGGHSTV

[21] = target: T5, Small ubiquitin-related modifier 1; assay: inhibitors of SUMO1 peptide binding, dose response, biochemical, fluorescence polarization, uHTS hits (AID 624382); format: functional; conditions: read-out: IC50_Mean
[22] = system: Danio rerio; assay: In Vivo Angiogenesis Dose-Response Confirmation. [Related pubchem assays: 732 (Assay preceding this confirmatory assay.)]; format: functional, organism-based

Sequence of Sphingosine 1-phosphate receptor 2 (O95136 whole entry): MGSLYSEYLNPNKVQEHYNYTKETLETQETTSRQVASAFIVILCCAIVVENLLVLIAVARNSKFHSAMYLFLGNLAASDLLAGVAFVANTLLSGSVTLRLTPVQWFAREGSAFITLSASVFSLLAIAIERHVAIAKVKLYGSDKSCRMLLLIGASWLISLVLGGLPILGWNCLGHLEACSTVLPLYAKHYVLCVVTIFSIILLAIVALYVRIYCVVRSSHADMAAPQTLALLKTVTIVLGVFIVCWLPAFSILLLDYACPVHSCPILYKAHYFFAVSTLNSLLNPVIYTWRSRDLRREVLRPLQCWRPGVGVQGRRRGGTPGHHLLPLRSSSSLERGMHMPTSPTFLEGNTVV

For `COc1ccc(NC(=O)/C(Cl)=C(/Cl)S(=O)(=O)Cc2ccc(C)cc2)cn1`, the IC50 [1] was 1.48 µM (active), the EC50 [2] was 2.71 µM (active) and the IC50 [3] was 0.564 µM (active). For the same compound, the EC50 [4] was < 0.2 µM (active), the EC50 [5] was 18.8 µM (active) and the IC50 [6] was 15.4 µM (not active). The AC50 [7] was 4.27 µM (active) and the IC50 [8] was 7.07 µM (active).

In the case of `O=C(c1ccc(-n2sc3ccccc3c2=O)cc1)N1CCCCC1`, the IC50 [9] is reported as 14.3 µM (active).

For `COc1cc(CNC(C)(C)CO)cc(Br)c1OCc1ccc(Cl)cc1`, the IC50 [10] was 19.1 µM (active).

In the case of `O=Cc1ccc(-c2ccc(Cl)cc2Cl)[nH]1`, the EC50 [11] is reported as > 55.7 µM (not active), the EC50 [12] is reported as > 55.7 µM (not active) and the CC50 [13] is reported as > 40 µM (active). For the same compound, the IC50 [14] was > 100 µM (active).

In the case of `O=C1COc2ccc(C(=O)COC(=O)/C=C/c3ccc(Br)o3)cc2N1`, the IC50 [15] is reported as > 94.1 µM (inactive), the IC50 [16] is reported as > 109 µM (not active) and the IC50 [17] is reported as 12.2 µM (active). The IC50 [18] was > 4.03 µM (active), the IC50 [19] was > 49.8 µM (not active) and the IC50 [20] was 4.57 µM (active). The IC50 [21] was > 66.6 µM (inactive).

For `O=C1Nc2ccccc2/C1=C1/Nc2ccccc2C1=O` [INDIRUBIN], the IC50 [22] was < 0.1 µM (not active).
